Patent publication US20030036633A1, “DNA encoding bradykinin B1 receptor” (Merck & Co., Inc., priority 1994, published 2003)
pIC50: −log10 of the molar value. “Also recorded” adds a separate entry of the source. Where two headings read alike, the source gives them in different places. Residues, ends and D or L forms follow the SMILES beside them.

Assays:
[1] = target: T1, B1 receptor in IMR-90 cells (Homo sapiens, UniProt P46663); assay: Displacement of 1 nM [3H]des-Arg10kallidin, membrane binding assay, IMR-90
T1 construct: 33E9) with the B1 receptor in IMR-90 cells (IMR-90); endogenous in cells; host or cells: IMR-90 cells (ATCC CCL 186)
T1 sequence (P46663 1-353): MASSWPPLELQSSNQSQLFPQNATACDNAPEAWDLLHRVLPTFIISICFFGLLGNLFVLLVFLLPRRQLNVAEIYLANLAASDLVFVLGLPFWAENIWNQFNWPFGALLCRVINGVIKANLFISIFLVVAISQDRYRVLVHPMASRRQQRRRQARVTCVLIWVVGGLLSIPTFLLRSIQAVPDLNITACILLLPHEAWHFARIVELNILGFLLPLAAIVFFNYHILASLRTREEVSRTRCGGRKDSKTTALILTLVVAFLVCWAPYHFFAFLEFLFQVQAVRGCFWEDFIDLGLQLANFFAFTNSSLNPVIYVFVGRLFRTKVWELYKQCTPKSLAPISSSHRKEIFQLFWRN

[2] = target: T2, cloned human B1 bradykinin receptor in transiently transfected COS-7 cells (COS 33E9) (Homo sapiens, UniProt P46663); assay: Displacement of 1 nM [3H]des-Arg10kallidin, membrane binding assay, COS 33E9; settings: for affinity for / displacement of [3H]des-Arg10kallidin from the cloned receptor, in words: cloned B1 receptor expressed in COS-7 cells
T2 construct: the full-length open reading frame of the B1 DNA (encoding a protein of about 40.4 kDa =about base 209 to about base 1267); expressed in transfected cells; host or cells: COS-7 cells, transient electroporation of clone 33E9 (pcDNA3 library vector)
T2 sequence (P46663 1-353): T1 sequence (P46663 1-353)
Procedure: Transient expression of the cloned B1 bradykinin receptor in COS-7 cells was accomplished by electroporation using a Biorad Gene Pulser. […] Binding assays were performed at room temperature for 45 minutes. Reactions were terminated by filtration using an Inotech cell harvester onto glass fiber filters (Inotech) that had been briefly soaked in 0.3% polyethyleneimine. The filters were washed five times with 1 ml per well of cold PBS and counted in a liquid scintillation counter. Alternatively, reactions were collected using a Tomtec cell harvester 96 onto 0.3% polyethyleneimine presoaked glass fiber filters (Pharmacia, printed filtermat for use with the 1205 Betaplate). The filter was washed five times with a total of 10 ml per well of cold 1× PBS, dried and sealed in a bag (Pharmacia) containing scintillation fluid. Counting was accomplished using a LKB1205 Betaplate liquid scintillation counter.

IMR-90 cells = assay: IL-1beta treatment of IMR-90 cells, number of B1 bradykinin receptors; type: cell-based, human
[3] = target: T3, B1 bradykinin receptor present in human aorta (Homo sapiens, UniProt P46663); assay: Affinity at B1 bradykinin receptor present in human aorta; type: binding; settings: R.W.R, unpublished data
T3 construct: The B1 bradykinin receptor present in human aorta; from tissue; host or cells: human aorta
T3 sequence (P46663 1-353): T1 sequence (P46663 1-353)

[4] = target: T4, B1 bradykinin receptor in IMR-90 cells (human, UniProt P46663 1-353); assay: displacement of 1 nM [3H]des-Arg10kallidin, membrane binding assay, IMR-90 cells
T4 construct: whole, on cells; Endogenous receptor; also called B1 receptor expressed in IMR-90 cells
T4 sequence (looked up): T1 sequence (P46663 1-353)
Procedure: Binding assays were performed at room temperature for 45 minutes. Reactions were terminated by filtration using an Inotech cell harvester onto glass fiber filters (Inotech) that had been briefly soaked in 0.3% polyethyleneimine. The filters were washed five times with 1 ml per well of cold PBS and counted in a liquid scintillation counter. Alternatively, reactions were collected using a Tomtec cell harvester 96 onto 0.3% polyethyleneimine presoaked glass fiber filters (Pharmacia, printed filtermat for use with the 1205 Betaplate). The filter was washed five times with a total of 10 ml per well of cold 1× PBS, dried and sealed in a bag (Pharmacia) containing scintillation fluid. Counting was accomplished using a LKB₁₂₀₅ Betaplate liquid scintillation counter.
The IC₅₀'s were determined by the displacement of 1 nM [³H]des- Arg¹⁰kallidin in the membrane binding assay described above.

[5] = target: cloned human B1 bradykinin receptor (clone 33E9) (human) (UniProt P46663); assay: displacement of 1 nM [3H]des-Arg10kallidin, membrane binding assay, COS-7 cells transiently transfected with clone 33E9
B1 receptor = target: T5, B1 receptor (Homo sapiens, UniProt P46663); assay: Electrophysiology of cRNA-injected Xenopus oocytes monitoring the Ca2+ sensitive Cl- channel; type: cell-based; settings: oocytes injected with cRNA of strongest positive pool
T5 construct: expressed in transfected cells; host or cells: Xenopus laevis oocytes injected with cRNA from a pool of about 800 library clones
T5 sequence (P46663 1-353): T1 sequence (P46663 1-353)

[6] = displacement of 1 nM [3H]des-Arg10kallidin, IMR-90 membranes, read-out: IC50, IMR-90
[7] = displacement of 1 nM [3H]des-Arg10kallidin, membranes of transiently transfected COS-7 cells, read-out: IC50, COS 33E9

CC[C@H](C)[C@H](NC(=O)[C@H](Cc1ccc(O)cc1)NC(=O)[C@@H]1CCCN1C(=O)[C@H](CCCNC(=N)N)NC(=O)[C@H](CCCNC(=N)N)NC(C)=O)C(=O)N[C@@H](CC(C)C)C(=O)O [Acetylated Neurotensin(8-13)]
pIC50 [1]: < 5.00
pIC50 [2]: < 5.00

CC[C@H](C)[C@H](NC(=O)[C@H](Cc1ccc(O)cc1)NC(=O)[C@@H](NC(=O)[C@H](CCCNC(=N)N)NC(=O)[C@@H](N)CC(=O)O)C(C)C)C(=O)N[C@@H](Cc1cnc[nH]1)C(=O)N1CCC[C@H]1C(=O)N[C@@H](Cc1ccccc1)C(=O)O [Angiotensin II]
pIC50 [1, 6]: < 5.00
pIC50 [2, 7]: < 5.00

NC(=O)CC[C@@H]1NC(=O)[C@H](Cc2ccccc2)NC(=O)[C@H](Cc2ccc(O)cc2)NC(=O)[C@@H](N)CSSC[C@@H](C(=O)N2CCC[C@H]2C(=O)N[C@@H](CCCN=C(N)N)C(=O)NCC(N)=O)NC(=O)[C@H](CC(N)=O)NC1=O [Arg Vasopressin]
pIC50 [1]: < 5.00
pIC50 [2]: < 5.00

N=C(N)NCCC[C@H](N)C(=O)N1CCC[C@H]1C(=O)N1CCC[C@H]1C(=O)NCC(=O)N[C@@H](Cc1ccccc1)C(=O)N[C@@H](CO)C(=O)N1CCC[C@H]1C(=O)O [Bradykinin(1-7)] (H-RPPGFSP-OH)
pIC50 [1]: < 5.00
pIC50 [2]: < 5.00

N=C(N)NCCC[C@H](NC(=O)[C@H](Cc1ccccc1)NC(=O)[C@@H]1CCCN1C(=O)[C@H](CO)NC(=O)[C@H](Cc1ccccc1)NC(=O)CNC(=O)[C@@H]1CCCN1C(=O)[C@@H]1CCCN1)C(=O)O [Bradykinin(2-9)] (H-PPGFSPFR-OH; N-terminus and C-terminus assumed)
pIC50 [1, 6]: < 5.00
pIC50 [2, 7]: < 5.00

NC(N)=NCCC[C@H](NC(=O)[C@H](Cc1ccccc1)NC(=O)[C@@H]1CCCN1C(=O)[C@H](CO)NC(=O)[C@H](Cc1ccccc1)NC(=O)CNC(=O)[C@@H]1CCCN1C(=O)[C@@H]1CCCN1C(=O)[C@@H](N)CCCN=C(N)N)C(=O)O [Bradykinin] (H-RPPGFSPFR-OH)
pIC50 [1]: < 5.00
pIC50 [2]: < 5.00

CC[C@H](C)[C@H](NC(=O)[C@H](CCCNC(=N)N)NC(=O)[C@H](CCCNC(=N)N)NC(=O)[C@H](CC(C)C)NC(=O)[C@H](Cc1ccccc1)NC(=O)CNC(=O)CNC(=O)[C@@H](N)Cc1ccc(O)cc1)C(=O)N[C@@H](CCCNC(=N)N)C(=O)N1CCC[C@H]1C(=O)N[C@@H](CCCCN)C(=O)N[C@@H](CC(C)C)C(=O)N[C@@H](CCCCN)C(=O)N[C@@H](Cc1c[nH]c2ccccc12)C(=O)N[C@@H](CC(=O)O)C(=O)N[C@@H](CC(N)=O)C(=O)N[C@@H](CCC(N)=O)C(=O)O [Dynorphin(1-17)]
pIC50 [1]: < 5.15
pIC50 [2]: < 5.15

CC[C@H](C)[C@H](NC(=O)[C@H](CC(=O)O)NC(=O)[C@H](CC(C)C)NC(=O)[C@H](Cc1cnc[nH]1)NC(=O)[C@@H]1CSSC[C@H](N)C(=O)N[C@@H](CO)C(=O)N[C@H]2CSSC[C@H](NC(=O)[C@H](CCC(=O)O)NC(=O)[C@H](CCCCN)NC(=O)[C@H](CC(=O)O)NC(=O)[C@H](CCSC)NC(=O)[C@H](CC(C)C)NC(=O)[C@H](CO)NC(=O)[C@H](CO)NC2=O)C(=O)N[C@@H](C(C)C)C(=O)N[C@@H](Cc2ccc(O)cc2)C(=O)N[C@@H](Cc2ccccc2)C(=O)N1)C(=O)N[C@H](C(=O)N[C@@H](Cc1c[nH]c2ccccc12)C(=O)O)[C@@H](C)CC [Endothelin I]
pIC50 [1, 6]: < 6.00
pIC50 [2, 7]: < 6.00

NC(N)=NCCC[C@@H](N)C(=O)N[C@@H](CCCN=C(N)N)C(=O)N1CCC[C@H]1C(=O)N1C[C@H](O)C[C@H]1C(=O)NCC(=O)N[C@@H](Cc1cccs1)C(=O)N[C@@H](CO)C(=O)N1Cc2ccccc2C[C@@H]1C(=O)N1[C@H](C(=O)N[C@@H](CCCN=C(N)N)C(=O)O)C[C@@H]2CCCC[C@@H]21 [Hoe 140]
pIC50 [1, 6]: < 5.00
pIC50 [2, 7]: < 5.00

CC(C)C[C@H](NC(=O)[C@H](Cc1ccccc1)NC(=O)CNC(=O)CNC(=O)[C@@H](N)Cc1ccc(O)cc1)C(=O)O [Leu-Enkephalin]
pIC50 [1]: < 5.00
pIC50 [2]: < 5.00

CC[C@H](C)[C@@H]1NC(=O)[C@H](Cc2ccc(O)cc2)NC(=O)[C@@H](N)CSSC[C@@H](C(=O)N2CCC[C@H]2C(=O)N[C@@H](CC(C)C)C(=O)NCC(N)=O)NC(=O)[C@H](CC(N)=O)NC(=O)[C@H](CCC(N)=O)NC1=O [Oxytocin]
pIC50 [1, 6]: < 5.00
pIC50 [2, 7]: < 5.00

CSCC[C@H](NC(=O)[C@H](CC(C)C)NC(=O)CNC(=O)[C@H](Cc1ccccc1)NC(=O)[C@H](Cc1ccccc1)NC(=O)[C@H](CCC(N)=O)NC(=O)[C@H](CCC(N)=O)NC(=O)[C@@H]1CCCN1C(=O)[C@H](CCCCN)NC(=O)[C@@H]1CCCN1C(=O)[C@@H](N)CCCN=C(N)N)C(N)=O [Substance P]
pIC50 [1, 6]: < 5.00
pIC50 [2, 7]: < 5.00

IL-1β: cytokine IL-1β (R & D Systems)
stimulation of the number of B1 bradykinin receptors (IMR-90 cells): approximately 7 fold

[des-Arg^10],[3,4-^3H(N)]-kallidin [[^3H]des-Arg^10kallidin]
affinity for / displacement of [3H]des-Arg10kallidin from the cloned receptor, in words [2]: high affinity binding

des-Arg^9Leu^8bradykinin
affinity for / displacement of [3H]des-Arg10kallidin from the cloned receptor, in words [2]: high affinity binding

des-Arg^9bradykinin
affinity for the B1 receptor in IMR-90 cells, in words ([1]; IMR-90 cells): relatively low affinity
affinity for / displacement of [3H]des-Arg10kallidin from the cloned receptor, in words [2]: relatively low affinity
affinity [3]: > 1000 nM

des-Arg^10HOE 140 (peptide)
pIC50 [4]: 7.40
pIC50 [5]: 7.03

des-Arg^10Leu^9kallidin
block of des-Arg10kallidin response (B1 receptor): blocked
affinity for / displacement of [3H]des-Arg10kallidin from the cloned receptor, in words [2]: high affinity binding; also recorded: effectively displaces

des-Arg^10kallidin
agonist response of Ca2+ sensitive Cl- channel (B1 receptor): produced a response
